# Activity calls are given as the source filed them. The rule behind the calls is not given here.
# Columns and labels:
# [1] = test system: MARC145; assay: Suppression of Hsc70 expression in African green monkey Marc145 cells assessed as Hsc70 mRNA destabilization by measuring half life at 20 uM (reference value: 6.51 hrs); format: functional, cell-based; conditions: Chlorocebus aethiops
# [2] = Selectivity index, ratio of CC50 for cytotoxicity against African green monkey MARC145 cells to EC50 for antiviral activity against PEDV 85-7; format: toxicity, cell-based; conditions: read-out: Ratio CC50/EC50
# [3] = test system: Porcine epidemic diarrhea virus; assay: Antiviral activity against PEDV 85-7 infected in Marc145 cells assessed as down regulation of Hsc70 mRNA expression at 10 uM after 24 hrs by qPCR analysis; format: functional, organism-based
# [4] = test system: Porcine epidemic diarrhea virus; assay: Antiviral activity against PEDV 85-7 infected in Marc145 cells assessed as inhibition of viral transcription after 24 hrs by qPCR analysis; format: functional, organism-based; conditions: 85-7, MARC145, 24 h
# [5] = test system: Porcine epidemic diarrhea virus; assay: Antiviral activity against PEDV 85-7 infected in Marc145 cells assessed as inhibition of viral replication by measuring reduction in mRNA level at 10 uM after 24 hrs by qPCR analysis; format: functional; set-up: scale not given: the % may be the effect or the level left
# [6] = test system: Porcine epidemic diarrhea virus; assay: Antiviral activity against PEDV 85-7 infected in Marc145 cells assessed as reduction in PEDV-N protein level at 10 uM by Western blotting analysis; format: functional, organism-based
# [7] = Cytotoxicity against African green monkey MARC145 cells by CCK8 assay; format: cell-based; conditions: chlorocebus aethiops
# [8] = test system: Porcine epidemic diarrhea virus; assay: Antiviral activity against PEDV 85-7 infected in Marc145 cells assessed as reduction in viral virion at 20 uM by plaque assay; format: functional, organism-based
# [9] = test system: Porcine epidemic diarrhea virus; assay: Antiviral activity against PEDV 85-7 infected in Marc145 cells assessed as reduction in PDEV protein level at 10 uM after 24 hrs by indirect immunofluorescence assay; format: functional, organism-based
# [10] = test system: Porcine epidemic diarrhea virus; assay: Antiviral activity against PEDV (NK-2) inoculated in piglets assessed as reduction in mortality at 50 mg/kg, po administered every 24 hrs for 72 hrs; format: functional, organism-based
# [11] = test system: Porcine epidemic diarrhea virus; assay: Antiviral activity against PEDV (NK-2) inoculated in piglets assessed as reduction in swelling sloughing and attenuation of villi at 50 mg/kg, po administered every 24 hrs for 72 hrs by HE staining based microscopic analysis; format: functional, organism-based
# [12] = test system: Porcine epidemic diarrhea virus; assay: Antiviral activity against PEDV (NK-2) inoculated in piglets assessed as reduction in viral replication in intestine at 50 mg/kg, po administered every 24 hrs for 72 hrs by immunofluorescence assay; format: functional, organism-based
# [13] = test system: Porcine epidemic diarrhea virus; assay: Antiviral activity against PEDV (NK-2) inoculated in piglets assessed as reduction in multifocal diffusion of villous atrophy at 50 mg/kg, po administered every 24 hrs for 72 hrs by HE staining based microscopic analysis; format: functional, organism-based
# [14] = test system: Porcine epidemic diarrhea virus; assay: Antiviral activity against PEDV (NK-2) inoculated in piglets assessed as reduction in fusion of numerous villi at 50 mg/kg, po administered every 24 hrs for 72 hrs by HE staining based microscopic analysis; format: functional, organism-based
# [15] = test system: Porcine epidemic diarrhea virus; assay: Antiviral activity against PEDV 85-7 infected in Marc145 cells expressing pEGFP-N1/Hsc70 protein assessed as decrease in viral RNA level at 20 uM after 24 hrs by qPCR analysis; format: functional
# [16] = test system: Porcine epidemic diarrhea virus; assay: Antiviral activity against PEDV 85-7 infected in Marc145 cells expressing pEGFP-N1/Hsc70 protein assessed as decrease in PEDV-N-protein level at 20 uM after 24 hrs […]; format: functional
# [17] = test system: Porcine epidemic diarrhea virus; assay: Antiviral activity against PEDV 85-7 infected in Marc145 cells assessed as reduction in PEDV-N protein level by Western blotting analysis; format: functional, organism-based; conditions: dose 0.1-10 µM
# [18] = test system: Porcine epidemic diarrhea virus; assay: Antiviral activity against PEDV 85-7 infected in Marc145 cells assessed as down regulation of Hsc70 protein expression after 24 hrs by Western blotting analysis; format: functional, organism-based; conditions: dose 0.1-10 µM
# [19] = test system: Porcine epidemic diarrhea virus; assay: Antiviral activity against PEDV 85-7 infected in Marc145 cells assessed as suppression of viral assembly; format: functional, organism-based
SMILES,T1/2 [1],selectivity ratio [2],Activity [3],EC50 [4],Activity [5],Activity [6],CC50 [7],Activity [8],Activity [9],Activity [10],Activity [11],Activity [12],Activity [13],Activity [14],fold change (FC) [15],fold change (FC) [16],Activity [17],Activity [18],Activity [19]
CCc1cccc2c1N(C)Cc1cc(OC(C)=O)c(OC(C)=O)cc1-2,2.61 h,> 30,Active,3.26 µM,70%,Active,> 100 µM,,,,,,,,,,,,
CCc1cccc2c1N(C)Cc1cc(OC)c(OC)cc1-2,2.31 h,> 53,Active,1.89 µM,70%,Active,> 100 µM,Active,Active,Active,Active,Active,Active,Active,,,,,
CCc1cccc2c1N(C)Cc1cc(OCc3cc(C)n(C)n3)c(OCc3cc(C)n(C)n3)cc1-2,1.84 h,> 134,Active,0.72 µM,70%,Active,> 100 µM,Active,Active,Active,Active,Active,Active,Active,29.3,20.5,Dose-Dependent Effect,Dose-Dependent Effect,Active

# From ChEMBL document CHEMBL4811237, “Phenanthridine Derivative Host Heat Shock Cognate 70 Down-Regulators as Porcine Epidemic Diarrhea Virus Inhibitors” (J Nat Prod, 2021)
